One compound from patent publication US9968557B1, “Method of preparing modified multilayered microstructures with enhanced oral bioavailability” (Florida A&M University, priority 2011, dated 2018) can be followed below.

≈ marks a conversion by molar mass, not a printed value.

Series [1] is described as follows: Solubility of DIM-P in buffers of different pH, assayed by HPLC. The series is classed as physicochemical. On the procedure:
(§1) Solubility measurements were assayed by HPLC. Five milligrams of DIM-C-pPhC6H5 (“DIM-P”) was suspended in 1 ml of different buffers having pH 2.0, 4.0, 5.0, 6.0, 7.0 and 8.0 in a centrifuge tubes. The tubes were placed at 37±0.1° C. and kept for shaking at 1500 rpm for 24 hours. The suspensions were centrifuged, and supernatant were filtered using 0.1 μm filters prior to HPLC analysis. Partition co-efficient of DIM-P was measured in an octanol-water system. Octanol and water were mixed in 1:1 concentration and 3 mg of DIM-P was added to 2 mL of mixture followed by vigorous shaking for 5 minutes. The mixture was separated by centrifugation and samples were collected and filtered through 0.1 μm filters prior to HPLC analysis.

Series [2] can be described thus: Partition co-efficient in an octanol-water system. The series is classed as physicochemical. Conditions: octanol-water 1:1. On the procedure:
as §1

For the compound `c1ccc(-c2ccc(C(c3c[nH]c4ccccc34)c3c[nH]c4ccccc34)cc2)cc1` [DIM-P, DIM-C-pPhC6H5], the solubility result in series [1] (at any pH) was “less than 1 μg/mL”; in series [1] (pH 2.0, 37°C, 24 hours shaking) it was 0.18 ± 0.003 µg/mL (≈ 0.452 µM). The compound also displayed a Maximum solubility in series [1] (pH 8.0, 37°C, 24 hours shaking) of 0.73 ± 0.09 µg/mL. Besides, in series [1] (rank order by pH), the sequence of solubility result is listed as “pH 8.0>6.0>4.0>2.0”. Also, the log p value in series [2] is recorded as 6.97±0.12.

Usually solubility stands for how much of the substance goes into solution per volume. A low value points to little dissolved substance.
